Experimental data: US20050112696A1, “Compositions, methods and assays related to secretase cleavage specificity” (The University of Texas Southwestern Medical Center, priority 2003, published 2005)
“Also recorded” adds a separate entry of the source.

Tests used:
[1] = system: Ga14-Tip60 dependent transcription mediated by APLP2 (γ-secretase cleavage); assay: Ga14-Tip60 transactivation assay, cells co-transfected with APLP2 and Fe65; format: cell-based; conditions: HEK293 cells; DAPT 2 and 10 μM; inhibition was incomplete; FIG. 2C
Method: (§1) HEK293, HeLa and COS7 cells were transfected at 50 to 80% confluency in 6-well plates using Fugene6 reagent (Roche). For Ga14-Tip60 transactivation assays, HEK293 cells were co-transfected with five plasmids: (1) pG5E1B-luc=0.15 μg; (2) pCMV-LacZ=0.10 μg; (3) pM-Tip60=0.5 μg; (4) pCMV-FE65=0.5 μg; and (5) 0.05-1.0 μg pCMV-APP, 0.025-0.5 μg pCMV-Sport6-APLP1, or 0.05-1.0 μg pcDNA3.1-APLP2 as indicated. For the Fe65 titration experiments, HEK293 cells were cotransfected with five plasmids: (1) pG5E1B-luc=0.15 μg; (2) pCMV-LacZ=0.10 μg; (3) pM-Tip60=0.5 μg; (4) 0.5 μg of APP, 0.25 μg of APLP1, or 0.5 μg of APLP2; and (5) 0-2.0 μg pCMV-Fe65. Cells were harvested 2 days after transfection in 0.25 ml/well of reporter lysis buffer (Promega), and their Luciferase and β-galctosidase activities were determined with the Promega luciferase assay kit using a chemiluminescence reader from Berthold, and with the O-nitrophenyl-D-galacto-pyranoside assay for β-galactosidase, respectively. […]
(§2) For all three proteins (APP, APLP1, and APLP2), a bell-shaped dose-response curve of transactivation that depended on APP or an APLP was observed (FIG. 2A). […] Again, a dose-dependent, highly specific transactivation of Ga14-dependent transcription was detected. […]

[2] = system: Ga14-Tip60 dependent transcription mediated by APLP1 (γ-secretase cleavage); assay: Ga14-Tip60 transactivation assay, cells co-transfected with APLP1 and Fe65; format: cell-based; conditions: HEK293 cells; DAPT 2 and 10 μM; inhibition was incomplete; FIG. 2C
Method: as §1, §2

γ-secretase = assay: Immunoblotting of C-terminal fragments (CTFs) in transfected HEK293 cells; format: cell-based
Method: HEK293, HeLa and COS7 cells were transfected at 50 to 80% confluency in 6-well plates using Fugene6 reagent (Roche). For Ga14-Tip60 transactivation assays, HEK293 cells were co-transfected with five plasmids: (1) pG5E1B-luc=0.15 μg; (2) pCMV-LacZ=0.10 μg; (3) pM-Tip60=0.5 μg; (4) pCMV-FE65=0.5 μg; and (5) 0.05-1.0 μg pCMV-APP, 0.025-0.5 μg pCMV-Sport6-APLP1, or 0.05-1.0 μg pcDNA3.1-APLP2 as indicated. For the Fe65 titration experiments, HEK293 cells were cotransfected with five plasmids: (1) pG5E1B-luc=0.15 μg; (2) pCMV-LacZ=0.10 μg; (3) pM-Tip60=0.5 μg; (4) 0.5 μg of APP, 0.25 μg of APLP1, or 0.5 μg of APLP2; and (5) 0-2.0 μg pCMV-Fe65. Cells were harvested 2 days after transfection in 0.25 ml/well of reporter lysis buffer (Promega), and their Luciferase and β-galctosidase activities were determined with the Promega luciferase assay kit using a chemiluminescence reader from Berthold, and with the O-nitrophenyl-D-galacto-pyranoside assay for β-galactosidase, respectively. The luciferase activity was standardized by the β-galactosidase activity to control for transfection efficiency and further normalized with the transactivation level with cells expressing no APPs or Fe65. Values shown are averages of transactivation assays performed in triplates. For immunoblotting analyses, HEK293 were transfected with 1 μg expression plasmids encoding APP, APLP1, APLP2, SynCam, or neurexin 1β, with or without 0.25 μg of BACE 1 expression vector. For APLP1 cleavage experiments, 1 μg of APLP1 or APP was cotransfected with BACE (0.25 μg and 0.5 μg) or ADAM 9 (0.5 μg and 1.0 μg) in HEK293, HeLa and COS cells. The cell extracts or media were harvested 24 hours after the transfection. Where indicated, γ-secretase inhibitor IX (DAPT; Calbiochem) was added (2 μM final concentration) 6 hrs before harvesting the cells.
SDS-PAGE and Immunoblotting experiments were performed using standard procedures well know to one of ordinary skill in the are with either regular SDS gels or tricine gels. Lanes were loaded with ˜20 μg of protein from whole cell extracts harvested in sample buffer, and analysed by immunoblotting after SDS-PAGE using antibody dilutions of 1:1,000-2,000 for primary and 1:10,000 HRP conjugated goat-anti-rabbit secondary antibodies (ICN). For immunoblotting analysis of secreted proteins, supernatants from transfected cells (30 μl with approximately 5 μg protein) were loaded per lane.
In the next set of experiments these antibodies were employed to probe for APP, APLP1, and APLP2 cleavage in cells that either expressed these proteins alone or in combination with BACE 1 (FIG. 4). As negative controls, two other neuronal cell-surface proteins, […] (Nrx1β) and SynCAM (36,37,39) were examined. For each of the five proteins studied, six conditions were investigated: HEK293 control cells (lane 1), transfected cells only expressing BACE 1 (lane 2), or cells transfected either with APP, APLP1, APLP2, neurexin 1β (Nrx1β), or SynCAM alone (lanes 3 and 5) or together with BACE 1 (lanes 4 and 6) were incubated in the absence (lanes 1-4) or presence of the γ-secretase inhibitor DAPT ([…]; lanes 5-6). Transfected proteins (indicated on the right) were examined by immunoblotting (20 μg cell protein/lane) using regular SDS-PAGE (top panel for each protein) to monitor the full-length proteins (FL), or by tricine gel electrophoresis to detect their CTFs (bottom panel for each protein). […]

[3] = system: Ga14-Tip60 dependent transcription mediated by APP (γ-secretase cleavage); assay: Ga14-Tip60 transactivation assay, cells co-transfected with APP and Fe65; format: cell-based; conditions: HEK293 cells; DAPT 2 and 10 μM; inhibition was incomplete; FIG. 2C
Method: as §1, §2

[4] = system: central APP domain (CAD) of APP, APLP1 and APLP2; assay: F-spondin binding to the central APP domain (CAD); conditions: extracellular ligand; reelin domain or reelin and spondin domains sufficient
[5] = biological target: β-secretase cleavage sites of APP (Homo sapiens, UniProt P05067); assay: Effect of F-spondin binding on β-secretase cleavage of APP
β-secretase cleavage sites of APP, sequence (P05067 18-770): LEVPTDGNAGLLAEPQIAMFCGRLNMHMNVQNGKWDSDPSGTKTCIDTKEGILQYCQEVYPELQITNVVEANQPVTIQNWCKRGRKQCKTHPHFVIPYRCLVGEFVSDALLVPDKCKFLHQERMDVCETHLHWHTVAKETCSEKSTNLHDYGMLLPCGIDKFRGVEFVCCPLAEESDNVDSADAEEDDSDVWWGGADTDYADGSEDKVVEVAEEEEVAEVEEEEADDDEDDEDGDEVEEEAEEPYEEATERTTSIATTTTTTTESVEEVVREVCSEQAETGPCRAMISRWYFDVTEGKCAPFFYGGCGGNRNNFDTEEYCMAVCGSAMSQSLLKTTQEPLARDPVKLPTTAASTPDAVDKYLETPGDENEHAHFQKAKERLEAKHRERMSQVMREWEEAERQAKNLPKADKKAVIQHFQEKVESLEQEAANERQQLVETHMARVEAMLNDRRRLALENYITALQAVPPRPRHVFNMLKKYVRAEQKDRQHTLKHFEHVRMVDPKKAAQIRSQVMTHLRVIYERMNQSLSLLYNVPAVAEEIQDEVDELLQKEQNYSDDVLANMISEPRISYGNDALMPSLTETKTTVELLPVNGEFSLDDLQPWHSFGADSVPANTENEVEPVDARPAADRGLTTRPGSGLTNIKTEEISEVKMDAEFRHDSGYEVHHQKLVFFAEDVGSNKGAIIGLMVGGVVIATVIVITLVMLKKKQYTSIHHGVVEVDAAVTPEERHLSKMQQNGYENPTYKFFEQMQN

Molecule	inhibition of transactivation mediated by APLP2 [1]	inhibition of transactivation mediated by APLP1 [2]	CTFs of APLP1 upon DAPT treatment (γ-secretase; HEK293 cells transfected with APLP1, with or without BACE 1, DAPT (2 mM [sic]), FIG. 4)	CTFs of APLP2 upon DAPT treatment (γ-secretase; HEK293 cells transfected with APLP2, with or without BACE 1, DAPT (2 mM [sic]), FIG. 4)	CTFs of APP upon DAPT treatment (γ-secretase; HEK293 cells transfected with APP, with or without BACE 1, DAPT added 6 hrs before harvesting, tricine gel immunoblot)	CTFs of neurexin 1β/APP hybrid upon DAPT treatment (γ-secretase; HEK293 cells transfected with Nrx1β/APP hybrid, with or without BACE 1, FIG. 6B)	CTFs of neurexin 1β upon DAPT treatment (γ-secretase; HEK293 cells transfected with neurexin 1β, DAPT (2 mM [sic]), said to be most likely an artifact, FIG. 4)	inhibition of transactivation mediated by APP [3]	binding to the central APP domain (CAD) of APP, APLP1 and APLP2 [4]	effect of binding on cleavage at the β-secretase cleavage sites [5]
C[C@H](NC(=O)Cc1cc(F)cc(F)c1)C(=O)N[C@H](C(=O)OC(C)(C)C)c1ccccc1 [DAPT]	Significant inhibition	Significant inhibition	very abundant	very abundant	very abundant; also recorded: massive accumulation of CTFs	massive accumulation of CTFs	CTFs were also observed	Significant inhibition		
F-spondin: secreted multi-domain protein that promotes neural cell adhesion and neurite extension; extracellular ligand of APP (protein, UniProt Q9HCB6 29-807, looked up) Spondin-1: FSDETLDKVPKSEGYCSRILRAQGTRREGYTEFSLRVEGDPDFYKPGTSYRVTLSAAPPSYFRGFTLIALRENREGDKEEDHAGTFQIIDEEETQFMSNCPVAVTESTPRRRTRIQVFWIAPPAGTGCVILKASIVQKRIIYFQDEGSLTKKLCEQDSTFDGVTDKPILDCCACGTAKYRLTFYGNWSEKTHPKDYPRRANHWSAIIGGSHSKNYVLWEYGGYASEGVKQVAELGSPVKMEEEIRQQSDEVLTVIKAKAQWPAWQPLNVRAAPSAEFSVDRTRHLMSFLTMMGPSPDWNVGLSAEDLCTKECGWVQKVVQDLIPWDAGTDSGVTYESPNKPTIPQEKIRPLTSLDHPQSPFYDPEGGSITQVARVVIERIARKGEQCNIVPDNVDDIVADLAPEEKDEDDTPETCIYSNWSPWSACSSSTCDKGKRMRQRMLKAQLDLSVPCPDTQDFQPCMGPGCSDEDGSTCTMSEWITWSPCSISCGMGMRSRERYVKQFPEDGSVCTLPTEETEKCTVNEECSPSSCLMTEWGEWDECSATCGMGMKKRHRMIKMNPADGSMCKAETSQAEKCMMPECHTIPCLLSPWSEWSDCSVTCGKGMRTRQRMLKSLAELGDCNEDLEQVEKCMLPECPIDCELTEWSQWSECNKSCGKGHVIRTRMIQMEPQFGGAPCPETVQRKKCRIRKCLRNPSIQKLRWREARESRRSEQLKEESEGEQFPGCRMRPWTAWSECTKLCGGGIQERYMTVKKRFKSSQFTSCKDKKEIRACNVHPC									binds	inhibits the cleavage
